Active and inactive are the calls of the source. The rule behind the calls is not given here.
Assays:
[1] = target: T1, CREB-binding protein/Histone acetyltransferase p300 (Homo sapiens) (UniProt Q09472+Q92793); experiment: Inhibition of EP300/CBP in human LNCAP cells assessed as downregulation of Myc mRNA expression at 1 to 5 uM after 48 hrs by qRT-PCR method; assay type: cell-based
[2] = target: T1, CREB-binding protein/Histone acetyltransferase p300 (Homo sapiens); experiment: Inhibition of EP300/CBP in human LNCAP cells transfected with PSA-Luc reporter plasmid after 24 hrs by luciferase reporter gene assay; assay type: cell-based
MCF7 = experiment: Antiproliferative activity against human MCF7 cells after 96 hrs by Cell-Titer Glo assay; assay type: functional, cell-based; details: MCF7, 96 h
CWR22R [3] = experiment: Anticlonogenic activity against human 22Rv1 cells at 4 uM after 14 days by crystal violet staining based assay relative to control; assay type: functional
CWR22R [4] = experiment: Potency index, ratio of enzalutamide IC50 to compound IC50 for antiproliferative activity against human 22Rv1 cells; assay type: functional
[5] = target: T1, CREB-binding protein/Histone acetyltransferase p300 (Homo sapiens); experiment: Inhibition of EP300/CBP in human LNCAP cells assessed as downregulation of AR-regulated PSA mRNA expression at 1 to 5 uM after 48 hrs by qRT-PCR method; assay type: cell-based
LNCaP [6] = experiment: Antiproliferative activity against human LNCAP cells after 72 hrs by Cell-Titer Glo assay; assay type: functional, cell-based; details: Homo sapiens, LNCaP, 72 h; read-out: IC50
L02 = experiment: Antiproliferative activity against human HL7702 cells after 96 hrs by Cell-Titer Glo assay; assay type: cell-based; details: L02, 96 h
MDA-MB-231 = experiment: Antiproliferative activity against human MDA-MB-231 cells after 96 hrs by Cell-Titer Glo assay; assay type: functional, cell-based; details: MDA-MB-231, 96 h
[7] = target: T1, CREB-binding protein/Histone acetyltransferase p300 (Homo sapiens); experiment: Inhibition of EP300/CBP in human LNCAP cells assessed as downregulation of full length AR mRNA expression at 1 to 5 uM after 48 hrs by qRT-PCR method; assay type: cell-based
PC-3 = experiment: Antiproliferative activity against human PC3 cells after 96 hrs by Cell-Titer Glo assay; assay type: functional, cell-based; details: PC-3, 96 h
Hs-578T = experiment: Antiproliferative activity against human Hs 578T cells after 72 hrs by Cell-Titer Glo assay; assay type: functional, cell-based
HFL1 = experiment: Antiproliferative activity against HFL1 cells after 72 hrs by Cell-Titer Glo assay; assay type: cell-based; details: Homo sapiens, HFL1, 72 h
LNCaP C4-2B [8] = experiment: Anticlonogenic activity against human C4-2B cells at 4 uM after 14 days by crystal violet staining based assay relative to control; assay type: functional
CWR22R [9] = experiment: Anticlonogenic activity against human 22Rv1 cells after 14 days by crystal violet staining based assay; assay type: functional, cell-based
CWR22R [10] = experiment: cells; details: Homo sapiens, 22Rv1, 72 h
Description: Antiproliferative activity against human 22Rv1 cells after 72 hrs by Cell-Titer Glo assay

[11] = target: T1, CREB-binding protein/Histone acetyltransferase p300 (Homo sapiens); experiment: Inhibition of EP300/CBP in human LNCAP cells assessed as downregulation of AR-regulated KLK2 mRNA expression at 1 to 5 uM after 48 hrs by qRT-PCR method; assay type: cell-based
LNCaP C4-2B [12] = experiment: Anticlonogenic activity against human C4-2B cells after 14 days by crystal violet staining based assay; assay type: functional, cell-based
[13] = target: T1, CREB-binding protein/Histone acetyltransferase p300 (Homo sapiens); experiment: Inhibition of EP300/CBP in human LNCAP cells assessed as downregulation of AR-regulated TMPRSS2 mRNA expression at 1 to 5 uM after 48 hrs by qRT-PCR method; assay type: cell-based
LNCaP [14] = experiment: Potency index, ratio of enzalutamide IC50 to compound IC50 for antiproliferative activity against human LNCAP cells; assay type: functional

T1 sequence (Q09472 whole entry, looked up): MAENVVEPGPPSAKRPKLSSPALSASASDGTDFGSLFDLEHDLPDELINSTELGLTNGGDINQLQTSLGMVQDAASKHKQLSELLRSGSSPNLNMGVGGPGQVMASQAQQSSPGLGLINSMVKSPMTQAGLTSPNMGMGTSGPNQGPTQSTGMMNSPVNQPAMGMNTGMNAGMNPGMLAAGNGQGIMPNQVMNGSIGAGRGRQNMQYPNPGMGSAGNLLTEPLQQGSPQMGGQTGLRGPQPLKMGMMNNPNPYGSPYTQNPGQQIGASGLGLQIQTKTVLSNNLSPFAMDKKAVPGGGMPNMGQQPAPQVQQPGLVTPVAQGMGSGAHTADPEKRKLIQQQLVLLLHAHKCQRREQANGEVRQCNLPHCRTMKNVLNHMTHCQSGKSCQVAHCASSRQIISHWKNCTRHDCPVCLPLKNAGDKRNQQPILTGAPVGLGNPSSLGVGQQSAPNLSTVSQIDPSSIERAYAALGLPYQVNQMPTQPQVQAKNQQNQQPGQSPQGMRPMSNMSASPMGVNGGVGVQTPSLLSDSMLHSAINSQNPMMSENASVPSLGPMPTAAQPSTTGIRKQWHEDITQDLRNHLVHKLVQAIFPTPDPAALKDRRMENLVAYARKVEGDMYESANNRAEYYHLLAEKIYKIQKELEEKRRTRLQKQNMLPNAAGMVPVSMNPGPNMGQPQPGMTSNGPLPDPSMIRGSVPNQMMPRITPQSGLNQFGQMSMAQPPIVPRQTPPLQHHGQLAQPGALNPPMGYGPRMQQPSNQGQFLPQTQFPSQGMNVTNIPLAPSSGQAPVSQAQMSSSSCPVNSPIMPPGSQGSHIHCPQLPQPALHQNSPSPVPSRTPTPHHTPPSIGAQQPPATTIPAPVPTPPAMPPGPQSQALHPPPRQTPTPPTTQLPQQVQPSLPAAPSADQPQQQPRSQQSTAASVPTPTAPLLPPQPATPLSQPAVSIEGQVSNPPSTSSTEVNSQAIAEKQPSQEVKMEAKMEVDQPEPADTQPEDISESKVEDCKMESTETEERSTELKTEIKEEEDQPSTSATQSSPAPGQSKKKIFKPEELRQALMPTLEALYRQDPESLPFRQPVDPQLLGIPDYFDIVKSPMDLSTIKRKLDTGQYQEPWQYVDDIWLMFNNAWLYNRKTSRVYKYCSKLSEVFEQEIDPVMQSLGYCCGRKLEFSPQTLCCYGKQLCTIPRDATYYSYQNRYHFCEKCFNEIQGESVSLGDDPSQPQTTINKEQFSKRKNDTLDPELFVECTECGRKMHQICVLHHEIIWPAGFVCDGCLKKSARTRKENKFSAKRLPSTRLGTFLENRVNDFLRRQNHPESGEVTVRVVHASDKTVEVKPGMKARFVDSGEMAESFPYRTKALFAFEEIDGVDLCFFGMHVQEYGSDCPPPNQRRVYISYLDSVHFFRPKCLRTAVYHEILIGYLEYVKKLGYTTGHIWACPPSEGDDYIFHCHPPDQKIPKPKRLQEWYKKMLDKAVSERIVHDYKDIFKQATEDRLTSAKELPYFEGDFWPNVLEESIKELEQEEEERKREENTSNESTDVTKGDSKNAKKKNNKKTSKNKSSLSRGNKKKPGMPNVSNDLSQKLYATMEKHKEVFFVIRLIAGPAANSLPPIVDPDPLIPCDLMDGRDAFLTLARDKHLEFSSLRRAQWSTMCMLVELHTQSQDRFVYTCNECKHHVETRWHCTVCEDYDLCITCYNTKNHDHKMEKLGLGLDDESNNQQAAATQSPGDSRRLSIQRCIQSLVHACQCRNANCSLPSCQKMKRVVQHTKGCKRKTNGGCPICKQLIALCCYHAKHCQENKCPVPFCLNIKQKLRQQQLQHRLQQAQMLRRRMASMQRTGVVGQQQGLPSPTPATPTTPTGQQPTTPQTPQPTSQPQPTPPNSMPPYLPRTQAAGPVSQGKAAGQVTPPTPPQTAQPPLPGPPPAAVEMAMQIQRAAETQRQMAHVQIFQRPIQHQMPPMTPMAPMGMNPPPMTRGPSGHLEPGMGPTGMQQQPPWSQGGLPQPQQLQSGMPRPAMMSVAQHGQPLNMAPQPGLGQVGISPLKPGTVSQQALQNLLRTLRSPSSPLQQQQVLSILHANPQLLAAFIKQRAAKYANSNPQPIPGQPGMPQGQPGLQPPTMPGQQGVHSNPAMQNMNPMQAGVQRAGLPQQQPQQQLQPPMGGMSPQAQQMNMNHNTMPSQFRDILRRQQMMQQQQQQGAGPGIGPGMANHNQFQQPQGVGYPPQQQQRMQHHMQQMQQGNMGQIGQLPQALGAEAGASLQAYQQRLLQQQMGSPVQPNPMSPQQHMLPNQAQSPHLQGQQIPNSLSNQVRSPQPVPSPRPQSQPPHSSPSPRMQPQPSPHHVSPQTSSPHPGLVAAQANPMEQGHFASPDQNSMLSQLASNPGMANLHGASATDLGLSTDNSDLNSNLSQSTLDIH
T1 sequence (Q92793 whole entry, looked up): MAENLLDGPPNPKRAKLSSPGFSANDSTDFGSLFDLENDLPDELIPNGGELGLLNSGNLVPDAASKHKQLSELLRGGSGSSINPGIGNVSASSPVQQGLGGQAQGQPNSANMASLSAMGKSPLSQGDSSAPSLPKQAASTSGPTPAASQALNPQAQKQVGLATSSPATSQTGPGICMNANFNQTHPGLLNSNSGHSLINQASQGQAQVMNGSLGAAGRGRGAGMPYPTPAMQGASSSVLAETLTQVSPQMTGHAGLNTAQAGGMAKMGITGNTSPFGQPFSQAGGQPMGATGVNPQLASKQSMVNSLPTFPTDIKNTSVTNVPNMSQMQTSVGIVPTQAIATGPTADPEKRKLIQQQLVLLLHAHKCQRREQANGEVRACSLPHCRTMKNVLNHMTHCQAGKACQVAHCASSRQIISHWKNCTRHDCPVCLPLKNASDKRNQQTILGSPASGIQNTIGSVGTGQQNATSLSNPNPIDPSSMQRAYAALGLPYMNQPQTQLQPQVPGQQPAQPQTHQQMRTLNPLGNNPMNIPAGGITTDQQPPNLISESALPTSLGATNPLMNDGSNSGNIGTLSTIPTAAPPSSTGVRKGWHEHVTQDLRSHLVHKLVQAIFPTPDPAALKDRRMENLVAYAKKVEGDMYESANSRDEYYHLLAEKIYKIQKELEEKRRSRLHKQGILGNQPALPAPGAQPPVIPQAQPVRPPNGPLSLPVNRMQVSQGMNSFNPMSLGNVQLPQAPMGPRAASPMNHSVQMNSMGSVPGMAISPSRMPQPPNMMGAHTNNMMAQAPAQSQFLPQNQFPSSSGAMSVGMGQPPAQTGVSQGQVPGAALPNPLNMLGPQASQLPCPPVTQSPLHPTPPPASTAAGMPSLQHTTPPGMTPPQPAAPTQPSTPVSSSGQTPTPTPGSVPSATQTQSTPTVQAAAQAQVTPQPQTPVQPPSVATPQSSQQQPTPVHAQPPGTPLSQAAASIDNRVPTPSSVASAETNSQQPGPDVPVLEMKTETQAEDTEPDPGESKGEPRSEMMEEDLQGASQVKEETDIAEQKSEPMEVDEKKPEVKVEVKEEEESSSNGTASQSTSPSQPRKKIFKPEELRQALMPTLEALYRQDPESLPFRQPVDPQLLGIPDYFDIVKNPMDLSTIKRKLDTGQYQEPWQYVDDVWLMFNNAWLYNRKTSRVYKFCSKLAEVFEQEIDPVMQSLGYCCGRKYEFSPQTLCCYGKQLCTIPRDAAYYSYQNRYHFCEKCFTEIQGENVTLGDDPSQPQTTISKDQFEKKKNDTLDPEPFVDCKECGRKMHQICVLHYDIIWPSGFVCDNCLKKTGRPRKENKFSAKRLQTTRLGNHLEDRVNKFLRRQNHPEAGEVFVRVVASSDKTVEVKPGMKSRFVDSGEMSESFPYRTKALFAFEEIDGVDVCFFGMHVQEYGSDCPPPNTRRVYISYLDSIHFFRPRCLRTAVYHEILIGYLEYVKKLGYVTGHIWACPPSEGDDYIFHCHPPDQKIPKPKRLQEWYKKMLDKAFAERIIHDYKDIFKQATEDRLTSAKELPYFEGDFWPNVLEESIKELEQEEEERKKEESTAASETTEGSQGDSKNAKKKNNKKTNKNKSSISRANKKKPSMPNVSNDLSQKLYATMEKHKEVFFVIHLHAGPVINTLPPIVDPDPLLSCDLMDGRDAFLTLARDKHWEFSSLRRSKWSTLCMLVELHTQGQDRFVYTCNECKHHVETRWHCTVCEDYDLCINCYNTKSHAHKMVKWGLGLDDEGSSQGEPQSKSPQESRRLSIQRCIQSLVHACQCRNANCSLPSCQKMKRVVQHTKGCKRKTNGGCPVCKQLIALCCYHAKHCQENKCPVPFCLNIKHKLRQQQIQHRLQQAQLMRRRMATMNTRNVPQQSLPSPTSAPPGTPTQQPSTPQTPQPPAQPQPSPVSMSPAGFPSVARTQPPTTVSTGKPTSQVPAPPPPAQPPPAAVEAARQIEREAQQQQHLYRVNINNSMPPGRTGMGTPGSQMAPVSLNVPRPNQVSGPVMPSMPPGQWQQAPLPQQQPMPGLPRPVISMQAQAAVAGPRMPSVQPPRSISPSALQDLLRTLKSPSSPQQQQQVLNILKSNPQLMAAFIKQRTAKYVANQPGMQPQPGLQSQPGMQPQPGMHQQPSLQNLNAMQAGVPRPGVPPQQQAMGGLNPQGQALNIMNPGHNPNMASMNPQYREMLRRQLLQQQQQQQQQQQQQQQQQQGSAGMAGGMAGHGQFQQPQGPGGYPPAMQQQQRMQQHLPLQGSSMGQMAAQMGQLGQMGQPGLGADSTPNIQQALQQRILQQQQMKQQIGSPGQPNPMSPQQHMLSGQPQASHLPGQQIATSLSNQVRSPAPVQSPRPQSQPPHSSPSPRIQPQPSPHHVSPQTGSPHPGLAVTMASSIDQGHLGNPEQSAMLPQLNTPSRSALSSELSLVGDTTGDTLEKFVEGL

inhibition [1]: Active
inhibition [2]: Dose-dependent effect
IC50 (MCF7): 7.46 µM
inhibition [5]: Active
IC50 (LNCaP [6]): 2.01 µM
IC50 (MDA-MB-231): 36 µM
inhibition [7]: Active
IC50 (PC-3): 25.8 µM
IC50 (CWR22R [10]): 2.13 µM
inhibition [11]: Active
inhibition [13]: Active
Structure (SMILES): COc1ccc2c(c1)c(C(=O)Nc1cc(C(=O)OC(C)(C)C)cc(-c3cnn(C)c3)c1F)cn2C(C)=O
Activity (CWR22R [3]): <10%
Ratio IC50 (CWR22R [4]): 17
IC50 (L02): 40 µM
IC50 (Hs-578T): 15.1 µM
IC50 (HFL1): > 100 µM
Activity (LNCaP C4-2B [8]): <10%
Activity (CWR22R [9]): Dose-dependent effect
Activity (LNCaP C4-2B [12]): Dose-dependent effect
Ratio IC50 (LNCaP [14]): 17

Reference: ChEMBL document CHEMBL4145544, “Discovery and optimization of 1-(1H-indol-1-yl)ethanone derivatives as CBP/EP300 bromodomain inhibitors for the treatment of castration-resistant prostate cancer” (Eur J Med Chem, 2018)
